# Laboratory results from patent US20070155720A1, “Co-administration of dopamine-receptor binding compounds” (DarPharma, Inc., priority 2003, published 2007).
# Assays:
# [1] = tested on: adenylate cyclase; experiment: Stimulation of adenylate cyclase in brain tissue; assay type: biochemical; details: rat, monkey, and human brain tissue
# From the text: (§1) […]. […] […].
# [2] = target: T1, D4 receptor (Rattus norvegicus, UniProt P30729); experiment: Binding, cloned D4 receptor in CHO cells; set-up: expressed in transfected cells; host or cells: CHO cells; details: read-out: Cloned Receptors D4 CHO (rat)
# T1 sequence (P30729 1-387): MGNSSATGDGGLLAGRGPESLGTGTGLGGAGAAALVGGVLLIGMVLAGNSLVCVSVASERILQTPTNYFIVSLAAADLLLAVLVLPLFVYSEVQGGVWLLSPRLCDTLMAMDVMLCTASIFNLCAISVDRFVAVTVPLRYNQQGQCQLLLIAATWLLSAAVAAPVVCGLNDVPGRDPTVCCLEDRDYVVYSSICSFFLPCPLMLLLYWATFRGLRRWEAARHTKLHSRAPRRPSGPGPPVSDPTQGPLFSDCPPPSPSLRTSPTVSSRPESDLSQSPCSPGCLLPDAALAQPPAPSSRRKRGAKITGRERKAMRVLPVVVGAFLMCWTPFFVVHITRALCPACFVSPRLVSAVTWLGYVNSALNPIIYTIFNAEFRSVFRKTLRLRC
# [3] = tested on: dopamine release or reuptake; experiment: Dopamine release and reuptake
# From the text: as §1
# [4] = tested on: rats with scopolamine-induced deficits; experiment: Passive avoidance in rats, scopolamine-induced amnesia; assay type: in vivo, rat
# Procedure: The protocol summarized below is one of many variants of the passive avoidance procedure using scopolamine-induced amnesia (for review see Rush, Behav Neural Biol 50:255-274, 1988). This procedure is commonly used to identify drugs that may be useful in treating cognitive deficits, particularly those observed in AD. The effects of the D
# Testing was conducted in standard 2-compartment rectangular passive avoidance chambers (San Diego Instruments, San Diego, Calif.) with black plexiglas sides and grid floors. The light compartment of the chambers were illuminated by a 20 W lamp located in this compartment; the dark side of the chambers will be shielded from light, except for light penetrating the opening connecting the two compartments of each chamber.
# On training day, groups of 8 rats were injected with scopolamine (3.0 mg/kg, ip) or vehicle (1.0 ml/kg) 30 min prior to training. Scopolamine served as the dementing agent in this experiment. Ten min prior to training, each group of rats received a second injection of vehicle or a dose of DHX. At the end of the pretreatment interval, each rat was placed individually in the light compartment facing away from the opening between compartments. The latency for each rat to travel from the light to the dark compartment was measured up to a maximum of 300 sec; any animal not entering the dark compartment within 300 sec was discarded from the test group. Once the animal entered the dark compartment completely, a 1.0 milliampere, 3.0 sec scrambled shock was delivered to the entire grid floor. The animal was allowed to remain in the dark compartment during this 3.0 sec period or to escape to the light compartment. Each rat was then returned immediately to its home cage.
# Twenty-four hr after training, each rat was tested in the same apparatus for retention of the task (to remain passively in the light compartment). […] The latency for animals to enter the dark compartment on test day (step-through latency) was recorded up to a maximum of 600 sec. Each animal was used only once in a single experiment.
# A one-way analysis of variance (ANOVA) and Newman-Keuls post-hoc comparisons were used to identify significant deficits in passive avoidance responding produced by scopolamine and their reversal by DHX; a p value of less than 0.05 was used as the level of significance.
# [5] = target: D3 receptor (Rattus norvegicus, UniProt P19020); experiment: biochemical
# Chain of D3 receptor (P19020 whole entry): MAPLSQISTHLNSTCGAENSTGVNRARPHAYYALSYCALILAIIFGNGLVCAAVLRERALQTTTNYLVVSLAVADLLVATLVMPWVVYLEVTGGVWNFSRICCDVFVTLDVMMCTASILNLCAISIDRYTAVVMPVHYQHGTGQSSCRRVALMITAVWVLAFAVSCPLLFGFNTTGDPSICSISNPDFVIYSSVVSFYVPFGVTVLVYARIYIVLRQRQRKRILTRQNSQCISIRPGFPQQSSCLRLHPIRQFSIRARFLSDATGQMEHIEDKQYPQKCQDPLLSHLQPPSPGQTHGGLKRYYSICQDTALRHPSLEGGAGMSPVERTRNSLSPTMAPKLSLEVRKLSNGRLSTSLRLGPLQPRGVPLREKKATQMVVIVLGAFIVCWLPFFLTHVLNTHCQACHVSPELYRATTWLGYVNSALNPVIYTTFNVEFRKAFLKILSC
# [6] = Half-life and duration of functional activity; assay type: in vivo
# [7] = tested on: monkeys; details: young, intact monkeys; cited from earlier work
# [8] = tested on: MPTP-treated monkeys; experiment: Cognitive deficits in chronic low dose MPTP-treated monkeys, delayed response task; assay type: in vivo, monkey
# From the text: Two adult male Macaca fascicularis monkeys (4.7 and 5.7 kg initial body weight) and 1 female Macaca nemistrina monkey (5.0 kg initial body weight) were trained to perform a delayed response task. Briefly, animals were trained and tested on delayed response while seated in a restraining chair placed inside a sound attenuating modified Wisconsin General Test Apparatus. The monkey sat behind an opaque screen that when raised, allowed access to a sliding tray that contained recessed food wells with identical sliding white Plexiglas covers that served as stimulus plaques that could be displaced by the animal to obtain rewards (e.g. raisins). Monkeys were trained to retrieve a raisin from one of the food wells after observing the experimenter bait the well. […]
# Training was accomplished with a non-correction procedure, beginning with a 0 s delay and progressing to a 5 s delay. […] A response was scored a “mistake” if the monkey made its response choice to a well that was not baited with reward. […]
# Compounds and/or compositions described herein are tested by dissolving in physiological saline containing 0.2% ascorbate and administering subcutaneously. Ilustratively, compounds and/or compositions described herein are used at 0.3, 0.6, and 0.9 mg/kg doses, calculated as the free base where appropriate. The order of dose administration is determined randomly. […]
# [9] = target: 40 binding sites (other than the D1 site); experiment: Screen for activity at 40 binding sites; details: 40 binding sites other than D1, all except D2 and alpha2 adrenergic; read-out: IC50 at binding sites found inactive
# From the text: as §1
# [10] = target: T2, D1A receptor (C-6-mD1A) (Macaca mulatta, UniProt O77680); experiment: Binding, cloned D1A receptor in C-6 cells; set-up: species or system monkey (rhesus macaque); details: monkey receptor, read-out: Cloned Receptors D1A C-6 (monkey)
# T2 construct: expressed in transfected cells; host or cells: C-6 glioma cells
# T2 sequence (O77680 whole entry): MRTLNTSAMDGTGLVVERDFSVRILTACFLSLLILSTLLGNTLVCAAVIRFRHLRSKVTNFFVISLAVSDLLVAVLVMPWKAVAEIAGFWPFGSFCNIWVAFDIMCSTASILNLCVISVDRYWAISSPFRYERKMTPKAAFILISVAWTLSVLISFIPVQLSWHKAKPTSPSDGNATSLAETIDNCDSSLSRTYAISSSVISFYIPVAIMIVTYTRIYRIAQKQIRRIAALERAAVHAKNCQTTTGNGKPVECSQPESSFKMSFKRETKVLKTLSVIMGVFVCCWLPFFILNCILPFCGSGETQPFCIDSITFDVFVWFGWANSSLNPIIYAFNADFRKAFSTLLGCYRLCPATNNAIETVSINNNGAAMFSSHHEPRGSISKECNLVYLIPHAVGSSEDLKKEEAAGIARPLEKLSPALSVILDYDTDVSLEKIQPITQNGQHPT
# Procedure: Cells were grown in DMEM-H medium containing 4,500 mg/l glucose, L-glutamine, 5% fetal bovine serum and 600 ng/ml G418. […] Cells were plated into 24-well plates and allowed to grow to confluence (usually 2-4 days), after which they were used for either dose-response or desensitization studies. For the binding studies, 75-cm^2 flasks of confluent cells were treated as described below. All studies (functional and receptor binding) used cells from passages 2 to 20.
# Flasks of cells in the same passage were rinsed with 5 ml hypoosmotic buffer (1 mM HEPES, 2 mM EGTA, pH 7.4), and then incubated with 7 ml hypoosmotic buffer for 5 to 10 min at 4° C. Cells were then scraped off the bottom of the flask with a rubber policeman, collected into 50-ml tubes and centrifuged at 28,000×g at 4° C. for 20 min. […] Aliquots contained approximately 1 mg/ml of protein, as measured with the BCA protein assay reagent (Pierce, Rockford, Ill.). […]
# For dose-response studies, data were calculated for each sample and expressed initially as pmol cAMP per mg protein per min. […] Normalized dose-response curves were analyzed by nonlinear regression with an algorithm for sigmoid curves in the curve-fitting program Prism (Graphpad Inc., San Diego, Calif.). […] For competition binding studies, the raw data (expressed in dpm) were analyzed by nonlinear regression with a sigmoid dose-response model in Prism. […]
# [11] = tested on: acetylcholine release in striatum and frontal cortex; experiment: Acetylcholine release by in vivo microdialysis in conscious, freely-moving rats; set-up: species or system rat
# [12] = Pharmacokinetic studies in rodents and non-human primates; assay type: in vivo
# From the text: […]. […] […]
# [13] = target: alpha2 adrenergic receptors; experiment: Binding site screen, alpha2 adrenergic receptors
# From the text: as §1
smiles,measurement,setting,value
"Cl.Oc1cc2c(cc1O)[C@@H]1c3ccccc3CN[C@H]1CC2 (relative stereo) [Compound 6a, Trans-10,11-dihydroxy-5,6,6a,7,8,12b-hexahydrobenzo[a]phenanthridine hydrochloride]",Efficacy in stimulating adenylate cyclase in brain tissue,[1],full efficacy
same,Ki,[2],13 nM
same,Releasing dopamine or blocking its reuptake,[3],inactive
same,Shape of dose-response curve in passive avoidance,[4],inverted U-shaped dose-response curve
same,Scopolamine-induced deficits in step-through latency,"[4]; dose of 0.3 mg/kg, scopolamine 3.0 mg/kg ip",significantly improved
same,Increase in step-through latency,"[4]; doses of 0.1 and 1.0 mg/kg, scopolamine 3.0 mg/kg ip",not statistically-significant
same,Deficits induced by scopolamine,"[4]; narrow range of doses (0.1, 0.3, and 1.0 mg/kg ip)",significantly improved
same,Ki,[5],18 nM
same,Functional half-life,[6]; given subcutaneously,about 3 hr
same,half-life,"[6]; in vivo, iv, given intravenously, read-out: Half-life",~30 min
same,Spatial working memory,[7],produced improvements
same,Cognitive deficits produced by chronic low dose MPTP treatment,[8],improve cognitive deficits
same,IC50,[9],> 10000 nM
same,Ki,[10],2.2 nM
same,Acetylcholine release,[11],dose-related increases
same,Clearance from plasma,[12]; in vivo,cleared rapidly
same,Blood levels,"[12]; rodents and non-human primates, following iv, sc and po administration",significant blood levels
same,IC50,[13],~230 nM
